Experimental findings from patent publication US20210371388A1, “Bicyclic Carboxamide with Exocyclic Urea Derivatives as Antivirals for the Treatment of HBV Infection” (Baruch S. Blumberg Institute, priority 2020, published 2021) are described below.

The subject of this experiment is HBV replication in AML12HBV10 cells. Briefly: Antiviral efficacy: HBV DNA in AML12HBV10 cell lysates by dot-blot hybridization. In kind it is cell-based. As to conditions: Hepatitis B virus, AML12HBV10, 48 h, read-out: Antiviral activity (EC50), AML12HBV10 cells, 48 hours treatment, concentration that reduces the amount of HBV DNA by 50%. As for the experimental part:
The antiviral efficacy of the compounds of the disclosure, as presented in Table 2, were determined in AML12HBV10 cells. AML12HBV10 is an immortalized murine hepatocyte (AML12)-derived stable cell line that supports robust HBV replication in a tetracycline inducible manner (Xu et al.). The cells were seeded into 96 well plates at a density of 2×10^4 cells per well and cultured in DMEM/F12 media with 10% fetal bovine serum in the absence of tetracycline to allow pgRNA transcription and HBV DNA replication. One day after seeding, cells were left untreated or treated with a serial dilution of testing compounds, ranging from 50 μM to 0.39 μM, for 48 hours. Cells were then lysed by adding into each well of 100 μl lysis buffer containing 10 mM Tris-HCl (pH 7.6), 1 mM EDTA, 100 mM NaCl and 1% NP-40 and incubated at 37° C. for 30 minutes. Half amount (50 μλ) of cell lysate from each well was combined with equal volume of denaturing solution containing 0.5N NaOH and 1.5M NaCl. After 5 minute incubation, 100 μl of neutralization solution (1M Tris-HCl, pH 7.4, 1.5M NaCl) was added into each well. The denatured cell lysates (totally 200 μl) were applied onto Nylon membrane using 96-well dot-blot manifold (Biorad). HBV DNA in the cell lysates were determined by dot-blot hybridization with alpha-^32P-UTP-labelled riboprobe specific for HBV minus strand DNA. The antiviral efficacy of a compound of the disclosure was expressed as the concentration that reduces the amount of HBV DNA by 50% (EC50).

In the case of `O=C1CCN(C(=O)Nc2ccc(F)c(Cl)c2)c2ccccc21` [Entry 1], the EC50 was determined as 1.32 µM.
With `O=C1CCN(C(=O)Nc2ccc(F)c(Cl)c2)[C@H]2CCCC[C@H]12` [Entry 3], the EC50 was found to be 0.42 µM.
As for `O=C(Nc1ccc(F)c(Cl)c1)N1CCc2ccccc21` [Entry 4], the EC50 was found to be 0.36 µM.
Then `O=C(Nc1ccc(F)c(Cl)c1)N1CCOc2ccccc21` [Entry 5], with 0.52 µM; and `O=C(Nc1ccc(F)c(Cl)c1)N1CCCCc2ccccc21` [Entry 6], with 12.3 µM.
Take `O=C(Nc1ccc(F)c(Cl)c1)N1CCCc2ccccc21` [Entry 8]: the EC50 worked out at 1.55 µM.
Turning to `O=C(Nc1ccc(F)c(Cl)c1)N1CCNc2ccccc21` [Entry 9], the EC50 amounted to 0.5 µM.
`O=C1CCCN(C(=O)Nc2ccc(F)c(Cl)c2)c2ccccc21` [Entry 10]: the EC50 is at least 10 µM.
Then `Cc1ccc2c(c1)CCN2C(=O)Nc1ccc(F)c(Cl)c1` [Entry 11], with 5.26 µM; and `O=C(Nc1ccc(F)c(Cl)c1)N1CCc2cc(F)c(F)cc21` [Entry 12], with 2.07 µM.
Then `O=C1CCN(C(=O)Nc2cc(F)c(F)c(F)c2)[C@H]2CCCC[C@@H]12` [Entry 13], with 2.41 µM.
For `O=C1CCN(C(=O)Nc2cc(F)c(F)c(F)c2)[C@H]2CCCC[C@H]12` [Entry 14], the EC50 turned out to be 3.46 µM.
As to `CC1(O)CCN(C(=O)Nc2ccc(F)c(Cl)c2)C2CCCCC21` (stereo not drawn) [Entry 15], the EC50 worked out at 6.4 µM.
As for `O=C(Nc1cc(F)c(F)c(F)c1)N1CCC(O)C2CCCCC21` (stereo not drawn) [Entry 19], the figure is at least 10 µM.
Then `O=C1CCN(C(=O)Nc2cc(F)c(F)c(Cl)c2)C2CCCCC12` (stereo not drawn) [Entry 20], with 2.4 µM; and `O=C(Nc1cc(F)c(F)c(F)c1)N1CCNc2ccccc21` [Entry 21], with 0.63 µM; and `O=C1CN(C(=O)Nc2cc(F)c(F)c(F)c2)c2ccccc2N1` [Entry 22], with at least 10 µM.
As for `O=C1CN(C(=O)Nc2ccc(F)c(Cl)c2)c2ccccc2N1` [Entry 23], the figure is at least 10 µM.
As to `O=C(Nc1ccc(F)c(Cl)c1)N1CCN(CCCCF)c2ccccc21` [Entry 24], the EC50 is at least 10 µM.
Then `O=C(Nc1cc(F)c(F)c(F)c1)N1CCN(CC(F)(F)F)c2ccccc21` [Entry 25], with at least 10 µM.
Regarding `O=C(Nc1cc(F)c(F)c(F)c1)N1CCN(CCC(F)(F)F)c2ccccc21` [Entry 26], the EC50 was at least 10 µM.
As for `O=C(Nc1cc(F)c(F)c(F)c1)N1CCN(C(=O)c2ccccn2)c2ccccc21` [Entry 27], the figure is at least 10 µM.
Then `O=C(Nc1cc(F)c(F)c(F)c1)N1CCN(C(=O)c2ccc(C(F)(F)F)cc2)c2ccccc21` [Entry 28], with at least 10 µM; and `CC(=O)N1CCN(C(=O)Nc2cc(F)c(F)c(F)c2)c2ccccc21` [Entry 29], with at least 10 µM.
Then `CC(C)(C)C(=O)N1CCN(C(=O)Nc2cc(F)c(F)c(F)c2)c2ccccc21` [Entry 30], with at least 10 µM.
Consider `CC(C)C(=O)N1CCN(C(=O)Nc2cc(F)c(F)c(F)c2)c2ccccc21` [Entry 31], for which the EC50 came to 4.71 µM.
As for `O=C(Nc1cc(F)c(F)c(F)c1)N1CCN(C(=O)c2ccccc2)c2ccccc21` [Entry 32], the EC50 is at least 10 µM.
Regarding `O=C(Nc1cc(F)c(F)c(Cl)c1)N1CCNc2ccccc21` [Entry 33], the EC50 turned out to be 0.93 µM.
`O=C(Nc1cc(F)c(F)c(F)c1)N1CCN(S(=O)(=O)c2ccccc2)c2ccccc21` [Entry 34]: the EC50 was at least 10 µM.
As to `CCCCOC(=O)N1CCN(C(=O)Nc2cc(F)c(F)c(F)c2)c2ccccc21` [Entry 35], the EC50 is at least 10 µM.
Turning to `CC(C)COC(=O)N1CCN(C(=O)Nc2cc(F)c(F)c(F)c2)c2ccccc21` [Entry 36], the EC50 was at least 10 µM.
For `O=C(Nc1cc(F)c(F)c(F)c1)N1CCN(C(=O)OCc2ccccc2)c2ccccc21` [Entry 37], the EC50 was at least 10 µM.
As for `O=C(Nc1cc(F)c(F)c(F)c1)N1CCNC2CCCCC21` (stereo not drawn) [Entry 38], the figure is at least 10 µM.
As to `O=C(Nc1ccc(F)c(Cl)c1)N1CCNC2CCCCC21` (stereo not drawn) [Entry 40], the EC50 is at least 10 µM.
Regarding `O=C(Nc1ccc(F)c(Cl)c1)N1CCOC2CCCCC21` (stereo not drawn) [Entry 41], the EC50 is at least 10 µM.
Take `O=C(Nc1ccc(F)c(Cl)c1)N1CCN(C(=O)Nc2ccc(F)c(Cl)c2)[C@H]2CCCC[C@@H]21` [Entry 42]: the EC50 was at least 10 µM.
For `CC(C)(C)OC(=O)N1CCN(C(=O)Nc2ccc(F)c(Cl)c2)[C@H]2CCCC[C@@H]21` [Entry 43], the EC50 was at least 10 µM.
In the case of `CC(C)(C)OC(=O)N1CCN(C(=O)Nc2ccc(F)c(Cl)c2)[C@@H]2CCCC[C@@H]21` [Entry 44], the EC50 is at least 10 µM.
Take `O=C(Nc1ccc(F)c(Cl)c1)N1CCCC2CCCCC21` (stereo not drawn) [Entry 46]: the EC50 was at least 10 µM.
Turning to `O=C(Nc1ccc(F)c(Cl)c1)N1CCN[C@H]2CCCC[C@H]21` [Entry 47], the EC50 is at least 10 µM.
Then `O=C(Nc1ccc(F)c(Cl)c1)N1CCN(C(=O)Nc2ccc(F)c(Cl)c2)c2ccccc21` [Entry 48], with 0.75 µM; and `O=C(Nc1ccc(F)c(Cl)c1)N1CC2(CCCC2)Nc2ccccc21` [Entry 49], with at least 10 µM; and `CC1(C)CN(C(=O)Nc2ccc(F)c(Cl)c2)c2ccccc2N1` [Entry 50], with at least 10 µM.
As for `CC1CN(C(=O)Nc2ccc(F)c(Cl)c2)c2ccccc2N1` (stereo not drawn) [Entry 51], the figure is at least 10 µM.
In the case of `O=C(Nc1ccc(F)c(Cl)c1)N1CC(c2ccccc2)Nc2ccccc21` (stereo not drawn) [Entry 52], the EC50 was at least 10 µM.
`O=C(Nc1ccc(F)c(Cl)c1)N1CCS(=O)(=O)c2ccccc21` [Entry 53]: the EC50 was at least 10 µM.
As for `CC(C)(C)NC(=O)N1CCN(C(=O)Nc2ccc(F)c(Cl)c2)c2ccccc21` [Entry 54], the EC50 was at least 10 µM.
As for `O=C1CN(C(=O)Nc2ccc(F)c(Cl)c2)C2CCCCC2N1` (stereo not drawn) [Entry 56], the figure is at least 10 µM; as for `O=C(Nc1cccc(Cl)c1)N1CCN(C(=O)Nc2ccc(F)c(Cl)c2)c2ccccc21` [Entry 57], 0.65 µM.
As for `O=C(Nc1cc(Cl)ccc1F)N1CCNc2ccccc21` [Entry 58], the figure is 0.77 µM; as for `O=C(Nc1cc(F)c(F)c(F)c1)N1CCN(C(=O)Nc2cc(F)c(F)c(F)c2)c2ccccc21` [Entry 59], 1.12 µM; as for `NC(=O)C1CN(C(=O)Nc2ccc(F)c(Cl)c2)c2ccccc2N1` (stereo not drawn) [Entry 62], at least 10 µM.
As to `O=C(Nc1ccc(F)c(Cl)c1)N1c2ccccc2NCC1c1ccccc1` (stereo not drawn) [Entry 63], the EC50 is 0.78 µM.
As for `CC1CNc2ccccc2N1C(=O)Nc1ccc(F)c(Cl)c1` (stereo not drawn) [Entry 64], the figure is 4.38 µM; as for `CC1CN(C(=O)Nc2ccc(F)c(Cl)c2)c2ccccc2N1C(=O)Nc1ccc(F)c(Cl)c1` (stereo not drawn) [Entry 65], 1.3 µM.
`CC(C)C1CN(C(=O)Nc2ccc(F)c(Cl)c2)c2ccccc2N1C(=O)NCc1ccc(F)c(F)c1` (stereo not drawn) [Entry 66]: the EC50 worked out at 1.66 µM.
Then `O=C(Nc1ccc(F)c(Cl)c1)N1CC(CN2CCOCC2)N(C(=O)Nc2ccc(F)c(Cl)c2)c2ccccc21` (stereo not drawn) [Entry 67], with 2.03 µM; and `O=C(Nc1ccc(F)c(Cl)c1)N1CC(CN2CCC(O)CC2)N(C(=O)Nc2ccc(F)c(Cl)c2)c2ccccc21` (stereo not drawn) [Entry 68], with at least 10 µM; and `O=C(Nc1ccc(F)c(Cl)c1)N1CC(CN2CCC(F)(F)C2)N(C(=O)Nc2ccc(F)c(Cl)c2)c2ccccc21` (stereo not drawn) [Entry 69], with 0.65 µM.
Then `CN1CCN(CC2CN(C(=O)Nc3ccc(F)c(Cl)c3)c3ccccc3N2C(=O)Nc2ccc(F)c(Cl)c2)CC1` (stereo not drawn) [Entry 70], with at least 10 µM; and `O=C(Nc1ccc(F)c(Cl)c1)N1CC(CN2CCCC(F)(F)C2)N(C(=O)Nc2ccc(F)c(Cl)c2)c2ccccc21` (stereo not drawn) [Entry 72], with 1.23 µM.
As for `O=C1CC(c2ccccc2)N(C(=O)Nc2ccc(F)c(Cl)c2)c2ccccc21` (stereo not drawn) [Entry 73], the EC50 is 2.89 µM.
As for `O=C(Nc1ccc(F)c(Cl)c1)N1CC(CN2CCC(F)(F)C2)Nc2ccccc21` (stereo not drawn) [Entry 76], the EC50 was 5.09 µM.
Then `O=C(Nc1ccc(F)c(Cl)c1)N1c2ccccc2NCC1CN1CCC(F)(F)CC1` (stereo not drawn) [Entry 77], with 0.28 µM; and `O=C(Nc1ccc(F)c(Cl)c1)N1CC(CN2CCC(F)(F)CC2)Nc2ccccc21` (stereo not drawn) [Entry 78], with 4.32 µM.
Then `O=C(Nc1ccc(F)c(Cl)c1)N1c2ccccc2NCC1CN1CCC(F)(F)C1` (stereo not drawn) [Entry 79], with 1.7 µM; and `CC(C)C1CNc2ccccc2N1C(=O)Nc1ccc(F)c(Cl)c1` (stereo not drawn) [Entry 81], with 3.5 µM.
Regarding `O=C(Nc1ccc(F)c(Cl)c1)N1CCNc2cc(F)c(F)cc21` [Entry 82], the EC50 stood at 0.61 µM.
Consider `O=C(Nc1ccc(F)c(Cl)c1)N1CCN(C(=O)Nc2ccc(F)c(Cl)c2)c2cc(F)c(F)cc21` [Entry 83], for which the EC50 was 1.18 µM.
As for `O=C1CC(c2ccc(F)cc2)N(C(=O)Nc2ccc(F)c(Cl)c2)c2ccccc21` (stereo not drawn) [Entry 84], the figure is 2.37 µM.
With `O=C1CCN(C(=O)Nc2ccc(F)c(Cl)c2)c2ccc(Br)cc21` [Entry 85], the EC50 was at least 10 µM.
For the compound `O=C1CCN(C(=O)Nc2ccc(F)c(Cl)c2)c2ccc(Cl)cc21` [Entry 86], the EC50 amounted to 4.83 µM.
